Assay results as given in patent US10758534B2 (Vertex Pharmaceuticals Incorporated, priority 2014, dated 2020).

Molecular target: T1, F508del (Homo sapiens, UniProt P13569, DEL508-508)
T1 construct: expressed in transfected cells
Test: Protocol 1: membrane potential optical assay (FLIPR III, voltage sensing dye), identification of potentiator compounds
Assay type: cell-based
Conditions: Table 3, compounds of Table 1
Outline: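 Read-out: change in voltage-sensing dye fluorescence (FLIPR III) as a measure of F508del conductance. Temperature-corrected (27° C, 24 hrs) NIH 3T3 cells expressing F508del are pretreated with potentiators, dye-loaded, then stimulated with forskolin under a chloride ion gradient using chloride-free gluconate bath.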

T1 sequence (P13569 with tags, fused parts or gaps DEL508-508): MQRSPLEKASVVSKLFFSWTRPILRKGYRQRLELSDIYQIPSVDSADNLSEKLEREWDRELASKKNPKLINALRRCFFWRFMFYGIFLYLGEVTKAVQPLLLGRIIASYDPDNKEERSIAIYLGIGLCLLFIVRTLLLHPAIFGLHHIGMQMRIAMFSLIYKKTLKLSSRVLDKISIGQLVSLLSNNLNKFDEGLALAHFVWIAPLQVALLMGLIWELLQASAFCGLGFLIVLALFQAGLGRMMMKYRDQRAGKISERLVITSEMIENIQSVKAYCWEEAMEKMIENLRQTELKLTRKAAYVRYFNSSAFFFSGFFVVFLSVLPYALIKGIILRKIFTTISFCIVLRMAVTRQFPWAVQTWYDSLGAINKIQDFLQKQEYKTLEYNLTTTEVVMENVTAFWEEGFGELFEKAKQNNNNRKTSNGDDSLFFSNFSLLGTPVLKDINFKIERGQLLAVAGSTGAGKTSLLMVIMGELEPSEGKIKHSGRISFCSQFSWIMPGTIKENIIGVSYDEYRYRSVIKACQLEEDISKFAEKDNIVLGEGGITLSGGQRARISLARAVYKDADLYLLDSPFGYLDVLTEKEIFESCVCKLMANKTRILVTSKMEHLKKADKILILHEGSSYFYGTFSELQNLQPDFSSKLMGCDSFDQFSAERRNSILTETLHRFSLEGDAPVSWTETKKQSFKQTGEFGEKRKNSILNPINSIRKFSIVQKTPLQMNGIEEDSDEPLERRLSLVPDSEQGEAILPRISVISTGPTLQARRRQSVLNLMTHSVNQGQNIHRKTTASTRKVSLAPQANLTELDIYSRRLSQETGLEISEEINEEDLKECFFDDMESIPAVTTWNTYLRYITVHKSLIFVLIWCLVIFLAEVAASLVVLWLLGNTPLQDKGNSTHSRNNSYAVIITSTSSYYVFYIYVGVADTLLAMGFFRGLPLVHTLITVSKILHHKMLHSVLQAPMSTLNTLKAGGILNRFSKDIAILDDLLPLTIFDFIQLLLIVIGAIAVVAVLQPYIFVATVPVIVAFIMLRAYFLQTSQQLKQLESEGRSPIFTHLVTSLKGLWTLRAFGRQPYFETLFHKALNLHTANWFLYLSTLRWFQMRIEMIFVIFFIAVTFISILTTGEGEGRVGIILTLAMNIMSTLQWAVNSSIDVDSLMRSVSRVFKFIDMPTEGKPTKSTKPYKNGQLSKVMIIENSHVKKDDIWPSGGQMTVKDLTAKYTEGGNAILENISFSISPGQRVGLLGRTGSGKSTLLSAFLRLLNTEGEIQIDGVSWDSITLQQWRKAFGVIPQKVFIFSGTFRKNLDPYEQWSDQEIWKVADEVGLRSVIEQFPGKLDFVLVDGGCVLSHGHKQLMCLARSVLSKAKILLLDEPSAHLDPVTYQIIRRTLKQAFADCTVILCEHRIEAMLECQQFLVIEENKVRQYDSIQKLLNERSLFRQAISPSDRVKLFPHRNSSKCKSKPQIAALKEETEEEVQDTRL

| EC30 | Structure (SMILES) |
| --- | --- |
| +++ (“+++” means <3 uM) | Cc1ccc(Oc2nc3c(cc2C(=O)NS(=O)(=O)c2nccnc2N)CCCC3(C)C)c(C)c1 [Compound 1239, N-(3-aminopyrazin-2-yl)sulfonyl-2-(2,4-dimethylphenoxy)-8,8-dimethyl-6,7-dihydro-5H-quinoline-3-carboxamide] |
| +++ (“+++” means <3 uM) | CC(C)Oc1ccc(-c2ccc(C(=O)NS(=O)(=O)c3cccnc3N)c(N3C[C@H](C)CC3(C)C)n2)cn1 [Compound 1240, N-[(2-amino-3-pyridyl)sulfonyl]-6-(6-isopropoxy-3-pyridyl)-2-[(4R)-2,2,4-trimethylpyrrolidin-1-yl]pyridine-3-carboxamide] |
| +++ (“+++” means <3 uM) | CC1CN(c2nc(-c3ccnn3C(C)C)ccc2C(=O)NS(=O)(=O)c2cccc(N)n2)C(C)(C)C1 (stereo not drawn) [Compound 1242, N-[(6-amino-2-pyridyl)sulfonyl]-6-(2-isopropylpyrazol-3-yl)-2-(2,2,4-trimethylpyrrolidin-1-yl)pyridine-3-carboxamide] |
| +++ (“+++” means <3 uM) | Cc1cccc(C)c1Oc1nc(C(C)(C)C)ccc1C(=O)NS(=O)(=O)c1cccc(N)n1 [Compound 1243, N-[(6-amino-2-pyridyl)sulfonyl]-6-tert-butyl-2-(2,6-dimethylphenoxy)pyridine-3-carboxamide] |
| +++ (“+++” means <3 uM) | Cc1cc(C)c(Oc2nc(-c3cccc(F)c3F)ccc2C(=O)NS(=O)(=O)c2cccc(N)n2)c(C)c1 [Compound 1244, N-[(6-amino-2-pyridyl)sulfonyl]-6-(2,3-difluorophenyl)-2-(2,4,6-trimethylphenoxy)pyridine-3-carboxamide] |
| +++ (“+++” means <3 uM) | Cc1ccc(Oc2nc3c(cc2C(=O)NS(=O)(=O)c2cc[nH]n2)CCCC3(C)C)c(C)c1 [Compound 1246, 2-(2,4-dimethylphenoxy)-8,8-dimethyl-N-(1H-pyrazol-3-ylsulfonyl)-6,7-dihydro-5H-quinoline-3-carboxamide] |
| +++ (“+++” means <3 uM) | CC1CN(c2nc(-c3ccc(OC(C)C)nc3)ccc2C(=O)NS(=O)(=O)c2cccc(N)n2)C(C)(C)C1 (stereo not drawn) [Compound 1247, N-[(6-amino-2-pyridyl)sulfonyl]-6-(6-isopropoxy-3-pyridyl)-2-(2,2,4-trimethylpyrrolidin-1-yl)pyridine-3-carboxamide] |
| +++ (“+++” means <3 uM) | CC(C)Oc1ccc(-c2ccc(C(=O)NS(=O)(=O)c3cccc(N)n3)c(N3CCC[C@H]3C(F)(F)F)n2)cn1 [Compound 1248, N-[(6-amino-2-pyridyl)sulfonyl]-6-(6-isopropoxy-3-pyridyl)-2-[(2S)-2-(trifluoromethyl)pyrrolidin-1-yl]pyridine-3-carboxamide] |
| +++ (“+++” means <3 uM) | COc1ncc(-c2ccc(C(=O)NS(=O)(=O)c3nccnc3N)c(Oc3c(C)cc(C)cc3C)n2)cc1C [Compound 1249, N-(3-aminopyrazin-2-yl)sulfonyl-6-(6-methoxy-5-methyl-3-pyridyl)-2-(2,4,6-trimethylphenoxy)pyridine-3-carboxamide] |
| +++ (“+++” means <3 uM) | Cc1cc(C)c(Oc2nc(C)ccc2C(=O)NS(=O)(=O)c2cccc(N(C)C)n2)c(C)c1 [Compound 1250, N-[[6-(dimethylamino)-2-pyridyl]sulfonyl]-6-methyl-2-(2,4,6-trimethylphenoxy)pyridine-3-carboxamide] |
| ++ (“++” means between 3 uM and 10 uM) | COc1ccc(-c2ccc(C(=O)NS(=O)(=O)c3cccc(N)n3)c(Oc3c(C)cc(C)cc3C)n2)cc1O [Compound 1251, N-[(6-amino-2-pyridyl)sulfonyl]-6-(3-hydroxy-4-methoxy-phenyl)-2-(2,4,6-trimethylphenoxy)pyridine-3-carboxamide] |
| +++ (“+++” means <3 uM) | CCOc1cncc(-c2ccc(C(=O)NS(=O)(=O)c3cccc(N)n3)c(N3CC(C)CC3(C)C)n2)n1 (stereo not drawn) [Compound 1252, N-[(6-amino-2-pyridyl)sulfonyl]-6-(6-ethoxypyrazin-2-yl)-2-(2,2,4-trimethylpyrrolidin-1-yl)pyridine-3-carboxamide] |
| ++ (“++” means between 3 uM and 10 uM) | Cc1cc(C)c(Oc2ncc(CCc3ccccc3)cc2C(=O)NS(=O)(=O)c2cccc(N)n2)c(C)c1 [Compound 1253, N-[(6-amino-2-pyridyl)sulfonyl]-5-phenethyl-2-(2,4,6-trimethylphenoxy)pyridine-3-carboxamide] |
| +++ (“+++” means <3 uM) | CCOc1cc(F)cc(-c2ccc(C(=O)NS(=O)(=O)c3cccc(N)n3)c(Oc3c(C)cc(C)cc3C)n2)c1 [Compound 1255, N-[(6-amino-2-pyridyl)sulfonyl]-6-(3-ethoxy-5-fluoro-phenyl)-2-(2,4,6-trimethylphenoxy)pyridine-3-carboxamide] |
| ++ (“++” means between 3 uM and 10 uM) | CC(C)(C)c1cc(C(=O)NS(=O)(=O)c2cccc(N)c2)n(Cc2cccc3cc[nH]c23)n1 [Compound 1256, N-(3-aminophenyl)sulfonyl-5-tert-butyl-2-(1H-indol-7-ylmethyl)pyrazole-3-carboxamide] |
| +++ (“+++” means <3 uM) | COc1cc(C)c(-c2ccc(C(=O)NS(=O)(=O)c3cccc(N)n3)c(N3CC(C)CC3(C)C)n2)cc1C (stereo not drawn) [Compound 1259, N-[(6-amino-2-pyridyl)sulfonyl]-6-(4-methoxy-2,5-dimethyl-phenyl)-2-(2,2,4-trimethylpyrrolidin-1-yl)pyridine-3-carboxamide] |

| Structure (SMILES) | EC30 |
| --- | --- |
| CC(C)COc1cc(F)cc(-c2ccc(C(=O)NS(=O)(=O)c3cccc(N)n3)c(N3[C@@H](C)CCC3(C)C)n2)c1 [Compound 1241, N-[(6-amino-2-pyridyl)sulfonyl]-6-(3-fluoro-5-isobutoxy-phenyl)-2-[(5S)-2,2,5-trimethylpyrrolidin-1-yl]pyridine-3-carboxamide] | +++ (“+++” means <3 uM) |
| COC1CCN(c2nc(-c3cc(F)cc(OCC(C)C)c3)ccc2C(=O)NS(=O)(=O)c2ccn[nH]2)CC1 [Compound 1245, 6-(3-fluoro-5-isobutoxy-phenyl)-2-(4-methoxy-1-piperidyl)-N-(1H-pyrazol-5-ylsulfonyl)pyridine-3-carboxamide] | + (“+” means greater than 10 uM) |
| COc1cc(-c2cc(F)cc(OCC(C)C)c2)nc(N2[C@H](C)CC[C@@H]2C)c1C(=O)NS(=O)(=O)c1cccc(N)n1 [Compound 1254, N-[(6-amino-2-pyridyl)sulfonyl]-2-[(2S,5R)-2,5-dimethylpyrrolidin-1-yl]-6-(3-fluoro-5-isobutoxy-phenyl)-4-methoxy-pyridine-3-carboxamide] | +++ (“+++” means <3 uM) |
| CC(C)COc1cc(F)cc(-c2ccc(C(=O)NS(=O)(=O)c3ccn[nH]3)c(N3CCCC3Cc3ccccc3)n2)c1 (stereo not drawn) [Compound 1257, 2-(2-benzylpyrrolidin-1-yl)-6-(3-fluoro-5-isobutoxy-phenyl)-N-(1H-pyrazol-5-ylsulfonyl)pyridine-3-carboxamide] | ++ (“++” means between 3 uM and 10 uM) |
| CC(C)COc1cc(F)cc(-c2ccc(C(=O)NS(=O)(=O)c3cccc(N)n3)c(N3CCCC3C(C)C)n2)c1 (stereo not drawn) [Compound 1258, N-[(6-amino-2-pyridyl)sulfonyl]-6-(3-fluoro-5-isobutoxy-phenyl)-2-(2-isopropylpyrrolidin-1-yl)pyridine-3-carboxamide] | +++ (“+++” means <3 uM) |
